The source of these data is patent publication US20240116985A1, “STAPLED PEPTIDES AND METHODS THEREOF” (priority 2020, published 2024).

What is called chromatographic logD is a lipophilicity value derived from retention on a column. Low values mean a more hydrophilic compound, high ones a more lipophilic compound.

A short description of the series: CHI Log D procedure. The format is physicochemical. Conditions: for chromatographic logD: pH 7.4, CHI Log D; for CHI Log D: pH 7.4.

The compound `CC(=O)N1CCC[C@]12CC=CCCCC1(CCCC=CCCCCCC[C@@](C)(C(=O)N[C@@H](Cc3ccccc3)C(=O)N[C@@H](Cc3c[nH]c4ccccc34)C(=O)N[C@@H](CCC(N)=O)C(N)=O)NC(=O)[C@H](C(C)C)NC(=O)[C@H](Cc3ccccc3)NC(=O)[C@H](C)NC(=O)[C@H](C)NC(=O)[C@H](CCc3ccccc3)NC(=O)[C@H](CC(=O)O)NC1=O)NC(=O)[C@H](C)NC(=O)[C@H](CC(=O)O)NC2=O` (stereo partly drawn) [I-195, Ac-PL3-Asp-Ala-B5-Asp-hPhe-Ala-Ala-Phe-Val-S8-Phe-Trp-Gln-NH2] registered a chromatographic logD of 2.98.

Consider `CC(=O)N1CCC[C@]12CC=CCCCC1(CCCC=CCCCCCC[C@@](C)(C(=O)N[C@@H](Cc3ccccc3)C(=O)N[C@@H](Cc3c[nH]c4ccccc34)C(=O)N[C@@H](CCC(N)=O)C(N)=O)NC(=O)[C@H](C(C)C)NC(=O)[C@H](Cc3ccccc3)NC(=O)[C@H](C)NC(=O)[C@H](C)NC(=O)[C@H](CCC(=O)O)NC(=O)[C@H](CCc3ccccc3)NC1=O)NC(=O)[C@H](C)NC(=O)[C@H](CC(=O)O)NC2=O` (stereo partly drawn) [I-196, Ac-PL3-Asp-Ala-B5-hPhe-Glu-Ala-Ala-Phe-Val-S8-Phe-Trp-Gln-NH2], for which the “CHI Log D” value was found to be 3.711.

`CC(=O)N1CCC[C@]12CC=CCCCC1(CCCC=CCCCCCC[C@@](C)(C(=O)N[C@@H](Cc3ccccc3)C(=O)N[C@@H](Cc3c[nH]c4ccccc34)C(=O)N[C@@H](CCC(N)=O)C(N)=O)NC(=O)[C@H](C(C)C)NC(=O)[C@H](Cc3ccccc3)NC(=O)[C@H](C)NC(=O)[C@H](C)NC(=O)[C@H](CCC(=O)O)NC(=O)[C@H](CC(=O)O)NC1=O)NC(=O)[C@H](C)NC(=O)[C@H](Cc1ccc(O)cc1)NC2=O` (stereo partly drawn) [I-202, Ac-PL3-Tyr-Ala-B5-Asp-Glu-Ala-Ala-Phe-Val-S8-Phe-Trp-Gln-NH2] showed a chromatographic logD of 2.62.

In the case of `CC(=O)N1CCC[C@]12CC=CCCCC1(CCCC=CCCCCCC[C@@](C)(C(=O)N[C@@H](Cc3ccccc3)C(=O)N[C@@H](Cc3c[nH]c4ccccc34)C(=O)N[C@@H](CCC(N)=O)C(N)=O)NC(=O)[C@H](C(C)C)NC(=O)[C@H](Cc3ccccc3)NC(=O)[C@H](C)NC(=O)[C@H](C)NC(=O)[C@H](CCC(=O)O)NC(=O)[C@H](CC(=O)O)NC1=O)NC(=O)[C@H](C)NC(=O)[C@H](Cc1cccc(C)c1)NC2=O` (stereo partly drawn) [I-203, Ac-PL3-3MeF-Ala-B5-Asp-Glu-Ala-Ala-Phe-Val-S8-Phe-Trp-Gln-NH2], the chromatographic logD came out at 3.09.

Turning to `CC(=O)N1CCC[C@]12CC=CCCCC1(CCCC=CCCCCCC[C@@](C)(C(=O)N[C@@H](Cc3ccccc3)C(=O)N[C@@H](Cc3c[nH]c4ccccc34)C(=O)N[C@@H](CCC(N)=O)C(N)=O)NC(=O)[C@H](C(C)C)NC(=O)[C@H](Cc3ccccc3)NC(=O)[C@H](C)NC(=O)[C@H](C)NC(=O)[C@H](CCC(=O)O)NC(=O)[C@H](CC(=O)O)NC1=O)NC(=O)[C@H](C)NC(=O)[C@H](Cc1cccc(F)c1)NC2=O` (stereo partly drawn) [I-204, Ac-PL3-3FF-Ala-B5-Asp-Glu-Ala-Ala-Phe-Val-S8-Phe-Trp-Gln-NH2], the chromatographic logD came to 2.98.

Consider `CCCC[C@@H]1NC(=O)C2(CCCC=CCCCCCC[C@@](C)(C(=O)N[C@@H](Cc3ccccc3)C(=O)N[C@@H](Cc3c[nH]c4ccccc34)C(=O)N[C@@H](CCC(N)=O)C(N)=O)NC(=O)[C@H](C(C)C)NC(=O)[C@H](Cc3ccccc3)NC(=O)[C@H](C)NC(=O)[C@H](C)NC(=O)[C@H](CCC(=O)O)NC1=O)CCCC=CC[C@]1(CCCN1C(C)=O)C(=O)N[C@@H](CC(=O)O)C(=O)N[C@@H](C)C(=O)N2` (stereo partly drawn) [I-205, Ac-PL3-Asp-Ala-B5-nLeu-Glu-Ala-Ala-Phe-Val-S8-Phe-Trp-Gln-NH2], for which the chromatographic logD worked out at 3.84.

Turning to `CC(=O)N1CCC[C@]12CC=CCCCC1(CCCC=CCCCCCC[C@@](C)(C(=O)N[C@@H](Cc3ccccc3)C(=O)N[C@@H](Cc3c[nH]c4ccccc34)C(=O)N[C@@H](CCC(N)=O)C(N)=O)NC(=O)[C@H](C(C)C)NC(=O)[C@H](Cc3ccccc3)NC(=O)[C@H](C)NC(=O)[C@H](C)NC(=O)[C@H](CCC(=O)O)NC(=O)[C@H](Cc3cccnc3)NC1=O)NC(=O)[C@H](C)NC(=O)[C@H](CC(=O)O)NC2=O` (stereo partly drawn) [I-213, Ac-PL3-Asp-Ala-B5-3pyrA-Glu-Ala-Ala-Phe-Val-S8-Phe-Trp-Gln-NH2], the chromatographic logD is 2.82.

Take `CC(=O)N1CCC[C@]12CC=CCCCC1(CCCC=CCCCCCC[C@@](C)(C(=O)N[C@@H](Cc3ccccc3)C(=O)N[C@@H](Cc3c[nH]c4ccccc34)C(=O)N[C@@H](CCC(N)=O)C(N)=O)NC(=O)[C@H](C(C)C)NC(=O)[C@H](Cc3ccccc3)NC(=O)[C@H](C)NC(=O)[C@H](C)NC(=O)[C@H](CCC(=O)O)NC(=O)[C@H](Cc3ccncc3)NC1=O)NC(=O)[C@H](C)NC(=O)[C@H](CC(=O)O)NC2=O` (stereo partly drawn) [I-214, Ac-PL3-Asp-Ala-B5-4pyrA-Glu-Ala-Ala-Phe-Val-S8-Phe-Trp-Gln-NH2]: the chromatographic logD stood at 2.7.

Consider `CC(=O)N1CCC[C@]12CC=CCCCC1(CCCC=CCCCCCC[C@@](C)(C(=O)N[C@@H](Cc3ccccc3)C(=O)N[C@@H](Cc3c[nH]c4ccccc34)C(=O)N[C@@H](CCC(N)=O)C(N)=O)NC(=O)[C@H](C(C)C)NC(=O)[C@H](Cc3ccccc3)NC(=O)[C@H](C)NC(=O)[C@H](C)NC(=O)[C@H](CCC(=O)O)NC(=O)[C@H](Cc3ccccn3)NC1=O)NC(=O)[C@H](C)NC(=O)[C@H](CC(=O)O)NC2=O` (stereo partly drawn) [I-230, Ac-PL3-Asp-Ala-B5-2pyrA-Glu-Ala-Ala-Phe-Val-S8-Phe-Trp-Gln-NH2], for which the chromatographic logD was determined as 2.98.

Compound `CC(=O)N1CCC[C@]12CC=CCCCC1(CCCC=CCCCCCC[C@@](C)(C(=O)N[C@@H](Cc3ccccc3)C(=O)N[C@@H](Cc3c[nH]c4ccccc34)C(=O)N[C@@H](CCC(N)=O)C(N)=O)NC(=O)[C@H](C(C)C)NC(=O)[C@H](Cc3ccccc3)NC(=O)[C@H](C)NC(=O)[C@H](C)NC(=O)[C@H](Cc3cccc4ccccc34)NC(=O)[C@H](CC(=O)O)NC1=O)NC(=O)[C@H](C)NC(=O)[C@H](CC(=O)O)NC2=O` (stereo partly drawn) [I-234, Ac-PL3-Asp-Ala-B5-Asp-1NapA-Ala-Ala-Phe-Val-S8-Phe-Trp-Gln-NH2] yielded a chromatographic logD of 3.03.

Compound `CC(=O)N1CCC[C@]12CC=CCCCC1(CCCC=CCCCCCC[C@@](C)(C(=O)N[C@@H](Cc3ccccc3)C(=O)N[C@@H](Cc3c[nH]c4ccccc34)C(=O)N[C@@H](CCC(N)=O)C(N)=O)NC(=O)[C@H](C(C)C)NC(=O)[C@H](Cc3ccccc3)NC(=O)[C@H](C)NC(=O)[C@H](C)NC(=O)[C@H](Cc3ccc(-c4ccccc4)cc3)NC(=O)[C@H](CC(=O)O)NC1=O)NC(=O)[C@H](C)NC(=O)[C@H](CC(=O)O)NC2=O` (stereo partly drawn) [I-235, Ac-PL3-Asp-Ala-B5-Asp-Bip-Ala-Ala-Phe-Val-S8-Phe-Trp-Gln-NH2] yielded a chromatographic logD of 3.2.

`CC(=O)N1CCC[C@]12CC=CCCCC1(CCCC=CCCCCCC[C@@](C)(C(=O)N[C@@H](Cc3ccccc3)C(=O)N[C@@H](Cc3c[nH]c4ccccc34)C(=O)N[C@@H](CCC(N)=O)C(N)=O)NC(=O)[C@H](C(C)C)NC(=O)[C@H](Cc3ccccc3)NC(=O)[C@H](C)NC(=O)[C@H](C)NC(=O)[C@H](Cc3ccc(F)cc3)NC(=O)[C@H](CC(=O)O)NC1=O)NC(=O)[C@H](C)NC(=O)[C@H](CC(=O)O)NC2=O` (stereo partly drawn) [I-258, Ac-PL3-Asp-Ala-B5-Asp-4FF-Ala-Ala-Phe-Val-S8-Phe-Trp-Gln-NH2]: the chromatographic logD was 2.89.

Regarding `CC(=O)N1CCC[C@]12CC=CCCCC1(CCCC=CCCCCCC[C@@](C)(C(=O)N[C@@H](Cc3ccc(F)c(F)c3)C(=O)N[C@@H](Cc3c[nH]c4ccccc34)C(=O)N[C@@H](CCC(N)=O)C(N)=O)NC(=O)[C@H](C(C)C)NC(=O)[C@H](Cc3ccccc3)NC(=O)[C@H](C)NC(=O)[C@H](C)NC(=O)[C@H](CC(=O)O)NC(=O)[C@H](CC(=O)O)NC1=O)NC(=O)[C@H](C)NC(=O)[C@H](CC(=O)O)NC2=O` (stereo partly drawn) [I-262, Ac-PL3-Asp-Ala-B5-Asp-Asp-Ala-Ala-Phe-Val-S8-34FF-Trp-Gln-NH2], the “CHI Log D” value is recorded as 2.106.

Take `CC(=O)N1CCC[C@]12CC=CCCCC1(CCCC=CCCCCCC[C@@](C)(C(=O)N[C@@H](Cc3ccc(F)c(F)c3)C(=O)N[C@@H](Cc3c[nH]c4ccccc34)C(=O)N[C@@H](CCC(N)=O)C(N)=O)NC(=O)[C@H](C(C)C)NC(=O)[C@H](Cc3ccccc3)NC(=O)[C@H](C)NC(=O)[C@H](C)NC(=O)[C@H](CC(=O)O)NC(=O)[C@H](CC(=O)O)NC1=O)NC(=O)[C@H](C)NC(=O)[C@H](CC(=O)O)NC2=O` (stereo partly drawn) [I-263, Ac-PL3-Asp-Ala-B5-Asp-Asp-Ala-Ala-Phe-Val-S8-34FF-Trp-Gln-NH2]: the “CHI Log D” value came out at 2.128.

As to `CC(=O)N1CCC[C@]12CC=CCCCC1(CCCC=CCCCCCC[C@@](C)(C(=O)N[C@@H](Cc3ccccc3)C(=O)N[C@@H](Cc3c[nH]c4ccccc34)C(=O)N[C@@H](CCC(N)=O)C(N)=O)NC(=O)[C@H](C(C)C)NC(=O)[C@H](Cc3cccc(F)c3)NC(=O)[C@H](C)NC(=O)[C@H](C)NC(=O)[C@H](CC(=O)O)NC(=O)[C@H](CC(=O)O)NC1=O)NC(=O)[C@H](C)NC(=O)[C@H](CC(=O)O)NC2=O` (stereo partly drawn) [I-264, Ac-PL3-Asp-Ala-B5-Asp-Asp-Ala-Ala-3FF-Val-S8-Phe-Trp-Gln-NH2], the “CHI Log D” value is recorded as 2.011.

As for `CC(=O)N1CCC[C@]12CC=CCCCC1(CCCC=CCCCCCC[C@@](C)(C(=O)N[C@@H](CCc3ccc(O)cc3)C(=O)N[C@@H](Cc3c[nH]c4ccccc34)C(=O)N[C@@H](CCC(N)=O)C(N)=O)NC(=O)[C@H](C(C)C)NC(=O)[C@H](Cc3ccccc3)NC(=O)[C@H](C)NC(=O)[C@H](C)NC(=O)[C@H](CC(=O)O)NC(=O)[C@H](CC(=O)O)NC1=O)NC(=O)[C@H](C)NC(=O)[C@H](CC(=O)O)NC2=O` (stereo partly drawn) [I-269, Ac-PL3-Asp-Ala-B5-Asp-Asp-Ala-Ala-Phe-Val-S8-hTyr-Trp-Gln-NH2], the chromatographic logD is 1.81.

As to `CC(=O)N1CCC[C@]12CC=CCCCC1(CCCC=CCCCCCC[C@@](C)(C(=O)N[C@@H](Cc3ccccc3)C(=O)N[C@@H](Cc3c[nH]c4ccccc34)C(=O)N[C@@H](CCC(N)=O)C(N)=O)NC(=O)[C@H](C(C)C)NC(=O)[C@H](Cc3ccccc3)NC(=O)[C@H](C)NC(=O)[C@H](C)NC(=O)[C@H](CC(=O)O)NC(=O)[C@H](CC(=O)O)NC1=O)NC(=O)[C@H](C)NC(=O)[C@H](CCC(=O)O)NC2=O` (stereo partly drawn) [I-280, Ac-PL3-Glu-Ala-B5-Asp-Asp-Ala-Ala-Phe-Val-S8-Phe-Trp-Gln-NH2], the “CHI Log D” value came to 1.991.
